From PMC2711511 (Bioorganic & medicinal chemistry letters, 2008)

How the values were obtained:
ERα [1] = target: T1, ERα (Homo sapiens, UniProt P03372); experiment: estrogen-responsive reporter gene cotransfection assay in HEC-1 cells, ERα
T1 sequence (P03372 1-595): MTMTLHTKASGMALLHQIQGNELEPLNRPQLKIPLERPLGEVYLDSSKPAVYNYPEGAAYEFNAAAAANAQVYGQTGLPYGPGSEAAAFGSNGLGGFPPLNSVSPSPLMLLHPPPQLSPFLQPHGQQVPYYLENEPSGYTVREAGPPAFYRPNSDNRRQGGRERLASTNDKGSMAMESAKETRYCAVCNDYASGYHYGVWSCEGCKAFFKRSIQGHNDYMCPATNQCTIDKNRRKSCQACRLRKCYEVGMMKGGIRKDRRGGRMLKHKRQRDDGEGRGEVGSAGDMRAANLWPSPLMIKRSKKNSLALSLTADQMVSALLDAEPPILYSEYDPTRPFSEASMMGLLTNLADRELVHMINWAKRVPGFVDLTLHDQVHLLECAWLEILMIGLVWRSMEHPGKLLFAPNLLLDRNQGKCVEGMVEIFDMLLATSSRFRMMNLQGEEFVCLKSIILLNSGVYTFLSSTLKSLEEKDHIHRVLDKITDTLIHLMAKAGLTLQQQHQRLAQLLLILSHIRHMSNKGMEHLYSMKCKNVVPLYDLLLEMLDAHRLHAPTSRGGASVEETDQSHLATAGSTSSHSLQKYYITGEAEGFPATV

ERα [2] = target: T1, ERα; settings: cited from earlier work
ERα [3] = target: T1, ERα; settings: cited from earlier work; remark: listed apart in the source
ERα [4] = target: T1, ERα; experiment: competitive radiometric binding assay, ERα

SMILES: Cc1c(-c2ccc(O)cc2)nn(-c2ccc(O)cc2)c1-c1ccc(OCCN2CCCCC2)cc1 [MPP, Methyl-piperidino-pyrazole]
- ERα partial agonist activity (ERα [1]): residual, low ERα partial agonist activity

SMILES: CCCc1c(-c2ccc(O)cc2)nn(-c2ccc(O)cc2)c1-c1ccc(O)cc1 [PPT, propyl-pyrazole-triol]
- agonist potency on ERα versus ERβ (ERα [2]): ca. 1000 fold
- affinity on ERα versus ERβ (ERα [3]): ca. 1000 fold

SMILES: Cc1c(-c2ccc(O)cc2)nn(-c2ccc(O)cc2)c1-c1ccc(CCCN2CCCCC2)cc1 [compound 1]
- ERα selectivity relative to that of the triol agonist MPT (ERα [4]): about 2.3 fold
- ERα partial agonist activity (ERα [1]): lacks

SMILES: Cc1c(-c2ccc(O)cc2)nn(-c2ccc(O)cc2)c1-c1ccc(/C=C/C(=O)N2CCCCC2)cc1 [compound 2]
- binding (in words) (ERα [4]; compared with MPP and 1): markedly lower
